Activity calls are given as the source filed them. The rule behind the calls is not given here.

Drawing on PubChem BioAssay AID1695 (PCMD, 2009), this text covers IC50 for eleven compounds.

In the experiment the target is dTDP-4-dehydrorhamnose reductase (Mycobacterium tuberculosis (strain ATCC 25618 / H37Rv)) + dTDP-4-dehydrorhamnose 3,5-epimerase (Mycobacterium tuberculosis (strain ATCC 25618 / H37Rv)) (UniProt P9WH09+P9WH11). The experiment in a line: Coupled RmlC and RmlD enzyme inhibition, Mycobacterium tuberculosis, dose response confirmation (AID 1695). To be noted: coupled RmlC/RmlD enzyme assay.
dTDP-4-dehydrorhamnose reductase (Mycobacterium tuberculosis (strain ATCC 25618 / H37Rv)) + dTDP-4-dehydrorhamnose 3,5-epimerase (Mycobacterium tuberculosis (strain ATCC 25618 / H37Rv)), sequence (P9WH09 whole entry, looked up): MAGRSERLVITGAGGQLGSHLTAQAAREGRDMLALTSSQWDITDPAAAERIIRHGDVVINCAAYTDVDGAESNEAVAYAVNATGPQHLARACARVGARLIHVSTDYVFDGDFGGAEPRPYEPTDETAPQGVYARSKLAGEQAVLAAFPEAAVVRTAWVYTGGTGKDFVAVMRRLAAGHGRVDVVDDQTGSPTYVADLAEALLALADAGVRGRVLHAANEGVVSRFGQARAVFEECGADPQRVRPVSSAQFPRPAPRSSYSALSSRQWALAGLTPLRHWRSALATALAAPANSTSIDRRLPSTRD
dTDP-4-dehydrorhamnose reductase (Mycobacterium tuberculosis (strain ATCC 25618 / H37Rv)) + dTDP-4-dehydrorhamnose 3,5-epimerase (Mycobacterium tuberculosis (strain ATCC 25618 / H37Rv)), sequence (P9WH11 whole entry, looked up): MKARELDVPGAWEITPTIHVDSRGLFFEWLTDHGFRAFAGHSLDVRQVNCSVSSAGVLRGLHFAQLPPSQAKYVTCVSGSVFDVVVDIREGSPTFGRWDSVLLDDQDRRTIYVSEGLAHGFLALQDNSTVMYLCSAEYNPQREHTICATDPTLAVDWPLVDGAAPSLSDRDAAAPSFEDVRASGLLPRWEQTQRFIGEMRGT

On to `O=C1CCC(=O)N1c1nc2nc(-c3ccccc3)cc(-c3ccccc3)n2n1`, for which the IC50 result is “inactive”.
`C=CCOC(=O)C1=C(C)NC(SCC(=O)NC(=O)OCC)=C(C#N)C1c1cccnc1` (stereo unspecified): the IC50 entry is “inactive”.
The entry for `CCCCCCc1cc2cc(-c3nnc(-c4ccccc4OC)o3)c(=O)oc2cc1O` is “inactive”.
Regarding `COC(=O)/C(=C/Nc1cccc2ccccc12)[N+](=O)[O-]`, the IC50 result was “inactive”.
Consider `CC1=C(C#N)C(c2cccnc2)C2=C(CCCC2=O)N1` (stereo unspecified), for which the IC50 result is “inactive”.
The entry for `COC(=O)C1=CNC=C(C(=O)OC)C1c1cccc(OC)c1` is “inactive”.
Regarding `CC1=CC(c2ccccc2)n2nc(NS(=O)(=O)c3ccc(C)cc3)nc2N1` (stereo unspecified), the IC50 entry is “inactive”.
The entry for `COc1ccccc1N=c1oc2cc(O)ccc2cc1C(N)=O` is “inactive”; for `CC1=C(C#N)C(c2cccnc2)C2=C(CC(C)(C)CC2=O)N1` (stereo unspecified) it is “inactive”.
The entry for `CCOC(=O)C1=C(CSc2nc(-c3ccccc3)ccc2C#N)OC(N)=C(C#N)C1c1cccnc1` (stereo unspecified) is “inactive”; for `COc1ccc(OC)c(/C=N/NC(=O)CC2C(=O)NN=C2C)c1` (stereo unspecified) it is “inactive”.
